Measurements taken from patent US5270334A, “4-methoxy-5-methyl-pyran-3-ol natural products and derivatives thereof” (E. R. Squibb & Sons, Inc., priority 1992, dated 1993).
pIC50: −log10 of the molar value. ≈ marks a conversion by molar mass, not a printed value. Where two headings read alike, the source gives them in different places.

Tests used:
[1] = system: Candida albicans; test: agar diffusion assay with yeasts (zone of inhibition); assay type: cell-based
Description: (§1) In addition to M.I.C. determinations, the following methodology was used to determine the activity of the compounds of this invention against yeasts. Fresh F-4 broth cultures of the test organisms were made from frozen vials. The broth cultures were incubated at 30° C. for 18 to 24 hours at which time the average cell count was assumed to be 5×10^7 CFU per ml. They were then used to inoculate flasks containing 300 ml of F-4 agar that had been melted and cooled to 48° C. in a temperature-controlled water bath. The inoculum consisted of 1.7 ml to give an inoculum level of about 2.8×10^5 CFU per ml. 25 ml of the inoculated agar was then poured into 150×15mm sterile Petri dishes and allowed to harden.
(§2) The medium was sterilized at 121° C. for 15 minutes at 15 psi.
(§3) F-4 agar has the same composition as the broth but with the addition of 15 g agar per liter.
(§4) Cellulose discs, 6.35 mm diameter, from Schleicher & Schuell, Inc., Keene, N.H., were charged with 10 μl of a solution composed of 1 mg/ml of lanomycin or scopularin in methanol. The discs were then placed on the surface of the inoculated agar plates of the test yeast strains, and the plates incubated at 30° C. for 18 to 24 hours. At that time, the diameter of the zones of inhibition was measured.

[2] = system: Candida glabrata; test: as above; assay type: cell-based; conditions: Nakaseomyces glabratus, SC9342; Candida glabrata SC 9342; disc with 10 μl of 1 mg/ml; read-out: Zone diameter
Description: as §1, §2, §3, §4

[3] = system: Candida krusei; test: as above; assay type: cell-based; conditions: Pichia kudriavzevii, SC2969; Candida krusei SC 2969; disc with 10 μl of 1 mg/ml; read-out: Zone diameter
Description: as §1, §2, §3, §4

[4] = system: Candida parakrusei; test: as above; assay type: cell-based
Description: as §1, §2, §3, §4

[5] = system: Candida quillermondi; test: as above; assay type: cell-based
Description: as §1, §2, §3, §4

[6] = system: Candida tropicalis; test: as above; assay type: cell-based
Description: as §1, §2, §3, §4

[7] = system: Cryptococcus neoformis; test: as above; assay type: cell-based
Description: as §1, §2, §3, §4

[8] = system: Saccaromyces cerevisiae; test: as above; assay type: cell-based; conditions: read-out: Zone diameter
Description: as §1, §2, §3, §4

[9] = biological target: T1, lanosterol demethylase (Candida albicans, UniProt P10613); test: inhibition of lanosterol demethylase, spectrophotometric carbon monoxide binding assay; conditions: Candida albicans SGY677; read-out: concentration which gives 50% inhibition of carbon monoxide binding
T1 construct: endogenous in cells; host or cells: Candida albicans SGY677
T1 sequence (P10613 whole entry): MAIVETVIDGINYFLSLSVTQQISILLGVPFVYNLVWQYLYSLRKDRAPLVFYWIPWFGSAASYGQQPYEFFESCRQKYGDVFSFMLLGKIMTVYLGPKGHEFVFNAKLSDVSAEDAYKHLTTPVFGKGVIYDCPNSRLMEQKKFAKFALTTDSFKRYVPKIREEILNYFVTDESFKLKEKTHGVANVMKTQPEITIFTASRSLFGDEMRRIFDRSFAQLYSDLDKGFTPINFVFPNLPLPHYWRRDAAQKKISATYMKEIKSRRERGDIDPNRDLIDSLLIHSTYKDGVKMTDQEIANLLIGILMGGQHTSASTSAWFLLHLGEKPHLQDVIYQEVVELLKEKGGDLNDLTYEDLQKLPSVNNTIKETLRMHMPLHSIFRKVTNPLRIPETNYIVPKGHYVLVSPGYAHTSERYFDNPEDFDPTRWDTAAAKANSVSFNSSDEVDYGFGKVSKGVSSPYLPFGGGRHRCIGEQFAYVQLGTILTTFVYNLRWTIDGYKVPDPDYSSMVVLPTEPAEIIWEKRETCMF
Description: The inhibition of lanosterol demethylase was determined by two methods: the spectrophotometric carbon monoxide binding assay of Omura and Sato (J. Biol. Chem. 239:2370-2378, 1964) and by a radiolabeled metabolic assay.
Cells of Candida albicans, SGY677, were grown overnight without shaking at 30° C. in a medium consisting of yeast extract 1%, peptone 2%, glucose 2% and distilled water. Cells were harvested by centrifugation and resuspended in 0.65M mannitol to an optical density at 600 nm of 2.5. At this density 1 ml of cells was equal to 6.7 mg constant dry weight (105° C. for 18 hours).
Scopularin and its alcohol derivative of Example 4 were added to the enzyme and the inhibition of carbon monoxide binding determined over a range of inhibitor concentrations.

[10] = system: yeasts and fungi; test: activity against a variety of yeasts and fungi (general statement); assay type: cell-based; conditions: in words
[11] = system: cytochrome P450 enzymes, such as lanosterol demethylase; test: inhibition of cytochrome P450 enzymes (general statement); assay type: biochemical; conditions: in words
[12] = system: Candida albicans; test: Anticandidal activity of lanomycin, agar dilution method (Table 5); assay type: cell-based; conditions: for MIC: 10^4 cfu
Description: (§5) MICs were determined by the agar dilution method using a medium composed of tryptone (5 g), malt extract (3 g), glucose (10 g) and yeast extract (3 g) in 1 L distiled water; 10^4 cfu of the test organism was applied to the agar.

[13] = system: Candida guillermondii; test: as above; assay type: cell-based; conditions: for MIC: 10^4 cfu
Description: as §5

[14] = system: Candida krusei; test: as above; assay type: cell-based; conditions: for MIC: Pichia kudriavzevii, 10^4 cfu
Description: as §5

[15] = system: Candida parakrusei; test: as above; assay type: cell-based; conditions: for MIC: 10^4 cfu
Description: as §5

[16] = system: Candida pseudotropicalis; test: as above; assay type: cell-based; conditions: Kluyveromyces marxianus, SC11241; Candida pseudotropicalis SC 11241; 10^4 cfu
Description: as §5

[17] = system: Candida stellatoidea; test: as above; assay type: cell-based; conditions: Candida albicans, SC2211; Candida stellatoidea SC 2211; 10^4 cfu
Description: as §5

[18] = system: Candida tropicalis; test: as above; assay type: cell-based; conditions: 10^4 cfu
Description: as §5

[19] = acute toxicity, intraperitoneal administration to mice; conditions: mouse, in vivo, ip, random bred Swiss Webster Female mice
[20] = system: dermatophytes; test: antifungal activity of lanomycin; assay type: cell-based; conditions: in words
Description: *Minimal inhibitory concentrations were determined by agar dilution assay
MICs were determined as in Table 5 except that the inoculum was 10^3 cfu.

[21] = Candida, SC2966, read-out: Zone diameter
[22] = SC2210, Candida quillermondi SC 2210, disc with 10 μl of 1 mg/ml, read-out: Zone diameter
[23] = Saccaromyces cerevisiae SGY 379, disc with 10 μl of 1 mg/ml

For `CCC/C=C/C=C/C=C(\C)[C@H]1OC[C@@H](C)[C@@H](OC)[C@@H]1OC(=O)CN` (relative stereo) [Scopularin, (2α, 3β, 4α, 5α)-Tetrahydro-4-methoxy-5-methyl-2-(1-methyl-1,3,5-nonatrienyl)-2H-pyran-3-ol, aminoacetate ester], the zone of inhibition at 1000 µg/mL ([1]; Candida albicans, SC4314, read-out: Zone diameter) was 37 mm, the zone of inhibition at 1000 µg/mL [2] was 36 mm and the zone of inhibition at 1000 µg/mL [3] was 20 mm. The zone of inhibition at 1000 µg/mL [4, 21] was 20 mm, the zone of inhibition at 1000 µg/mL ([4]; SC2621, Candida parakrusei SC 2621, disc with 10 μl of 1 mg/ml, read-out: Zone diameter) was 31 mm and the zone of inhibition at 1000 µg/mL [5, 22] was 31 mm. It also gave a zone of inhibition at 1000 µg/mL ([5]; SC2996, Candida quillermondi SC 2996, disc with 10 μl of 1 mg/ml, read-out: Zone diameter) of 32 mm, a zone of inhibition at 1000 µg/mL ([6]; SC2963, Candida tropicalis SC 2963, disc with 10 μl of 1 mg/ml, read-out: Zone diameter) of 32 mm and a zone of inhibition at 1000 µg/mL ([6]; SC8159, Candida tropicalis SC 8159, disc with 10 μl of 1 mg/ml, read-out: Zone diameter) of 30 mm. It also gave a zone of inhibition at 1000 µg/mL ([7]; SC5817, Cryptococcus neoformis SC 5817, disc with 10 μl of 1 mg/ml, read-out: Zone diameter) of 25 mm, a zone of inhibition at 1000 µg/mL [8, 23] of 30 mm and a zone of inhibition at 1000 µg/mL [8] of 23 mm. For the same compound, the pIC50 [9] was 4.44, the “activity against a variety of yeasts and fungi” value [10] was “has activity” and the “inhibition of cytochrome P450 enzymes, such as lanosterol demethylase” value [11] was “inhibit”.
For `C/C=C/C=C/C=C(\C)[C@H]1OC[C@@H](C)[C@@H](OC)[C@@H]1OC(=O)CN` (relative stereo) [Lanomycin], the zone of inhibition at 1000 µg/mL ([1]; SC4314, Candida albicans SC 4314, disc with 10 μl of 1 mg/ml, read-out: Zone diameter) was 32 mm, the zone of inhibition at 1000 µg/mL [2] was 33 mm and the zone of inhibition at 1000 µg/mL [3] was 12 mm. The zone of inhibition at 1000 µg/mL ([4]; Candida, SC2621, read-out: Zone diameter) was 27 mm, the zone of inhibition at 1000 µg/mL [4, 21] was 12 mm and the zone of inhibition at 1000 µg/mL ([5]; Candida, SC2996, read-out: Zone diameter) was 29 mm. For the same compound, the zone of inhibition at 1000 µg/mL [5, 22] was 30 mm, the zone of inhibition at 1000 µg/mL ([6]; Candida tropicalis, SC2963, read-out: Zone diameter) was 28 mm and the zone of inhibition at 1000 µg/mL ([6]; Candida tropicalis, SC8159, read-out: Zone diameter) was 29 mm. The zone of inhibition at 1000 µg/mL ([7]; Cryptococcus, SC5817, read-out: Zone diameter) was 21 mm, the zone of inhibition at 1000 µg/mL ([8]; Saccaromyces cerevisiae SGY 195, disc with 10 μl of 1 mg/ml) was 25 mm and the zone of inhibition at 1000 µg/mL [8, 23] was 30 mm. For the same compound, the MIC ([12]; SC5314, Candida albicans SC 5314) was over 100 µg/mL, the MIC ([12]; SC9177, Candida albicans SC 9177) was 100 µg/mL (≈ 323 µM) and the MIC ([12]; SC9721, Candida albicans SC 9721) was 100 µg/mL (≈ 323 µM). The MIC ([12]; SC10102, Candida albicans SC 10102) was over 100 µg/mL, the MIC ([12]; SC10580, Candida albicans SC 10580) was over 100 µg/mL and the MIC ([12]; SC10584, Candida albicans SC 10584) was 50 µg/mL (≈ 162 µM). For the same compound, the MIC ([12]; SC10585, Candida albicans SC 10585) was 100 µg/mL (≈ 323 µM), the MIC ([12]; SC11422, Candida albicans SC 11422) was 100 µg/mL (≈ 323 µM) and the MIC ([12]; SC12734, Candida albicans SC 12734) was over 100 µg/mL. For the same compound, the MIC ([12]; SC14021, Candida albicans SC 14021) was over 100 µg/mL, the “activity against the C. albicans species tested” value ([12]; in words, Table 5) was “active” and the MIC ([13]; SC2210, Candida guillermondii SC 2210) was 50 µg/mL (≈ 162 µM). For the same compound, the MIC ([13]; SC2996, Candida guillermondii SC 2996) was 1.6 µg/mL (≈ 5.17 µM), the “activity against certain strains of C. guillermondii” value ([13]; in words, Table 5) was “good activity” and the MIC ([14]; SC2967, Candida krusei SC 2967) was 6.3 µg/mL (≈ 20.4 µM). The MIC ([14]; SC2968, Candida krusei SC 2968) was 12.5 µg/mL (≈ 40.4 µM), the MIC ([14]; SC2969, Candida krusei SC 2969) was 25 µg/mL (≈ 80.8 µM) and the “activity against certain strains of C. krusei” value ([14]; in words, Table 5) was “good activity”. The MIC ([15]; SC2621, Candida parakrusei SC 2621) was 12.5 µg/mL (≈ 40.4 µM), the MIC ([15]; SC2966, Candida parakrusei SC 2966) was 25 µg/mL (≈ 80.8 µM) and the “activity against certain strains of C. parakrusei” value ([15]; in words, Table 5) was “good activity”. It also gave an MIC [16] of 50 µg/mL (≈ 162 µM), an MIC [17] of 50 µg/mL (≈ 162 µM) and an MIC ([18]; SC2963, Candida tropicalis SC 2963) of 25 µg/mL (≈ 80.8 µM). The MIC ([18]; SC8159, Candida tropicalis SC 8159) was over 100 µg/mL, the MIC ([18]; SC9861, Candida tropicalis SC 9861) was 100 µg/mL (≈ 323 µM) and the MIC ([18]; SC10597, Candida tropicalis SC 10597) was 100 µg/mL (≈ 323 µM). The LD50 [19] was 385 mg/kg, the “activity against a variety of yeasts and fungi” value [10] was “has activity” and the “inhibition of cytochrome P450 enzymes, such as lanosterol demethylase” value [11] was “inhibit”. The activity against dermatophytes ([20]; Table 4) was “showed activity” and the activity against dermatophytes ([20]; Table 6) was “active”.
